# Results taken from article PMC6317055, “Metabolites from the Paracel Islands Soft Coral Sinularia cf. molesta” (Marine Drugs, 2018).
# How the values were obtained:
# [1] = target: T1, protein tyrosine phosphatase 1B (PTP1B) (Homo sapiens, UniProt P18031); experiment: PTP1B inhibitory assay, pNPP method
# T1 sequence (P18031 1-435): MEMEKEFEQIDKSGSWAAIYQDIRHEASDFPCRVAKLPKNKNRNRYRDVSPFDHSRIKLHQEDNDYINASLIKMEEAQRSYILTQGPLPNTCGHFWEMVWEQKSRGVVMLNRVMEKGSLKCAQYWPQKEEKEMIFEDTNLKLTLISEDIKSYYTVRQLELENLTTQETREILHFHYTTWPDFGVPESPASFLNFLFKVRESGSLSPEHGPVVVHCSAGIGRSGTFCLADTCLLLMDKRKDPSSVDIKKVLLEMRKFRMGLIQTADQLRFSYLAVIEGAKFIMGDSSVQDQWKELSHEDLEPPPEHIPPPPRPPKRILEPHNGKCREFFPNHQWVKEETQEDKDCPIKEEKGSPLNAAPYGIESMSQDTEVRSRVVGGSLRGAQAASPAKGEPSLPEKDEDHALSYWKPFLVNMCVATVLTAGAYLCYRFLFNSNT
# Procedure: These isolated sesquiterpenes were also assessed for their inhibitory activities against PTP1B.
# [2] = Cytotoxicity assay, SRB method, HeLa; assay type: cell-based; settings: human, adriamycin positive control, read-out: cytotoxicity IC50 against HeLa cell lines
# Procedure: (§1) Considering the reported cytotoxic activities of some sesquiterpenes, cyclopentenone derivatives, and cembranoid diterpenes, all the compounds were evaluated for their cytotoxic activities against HeLa (human cervical carcinoma), HCT-116 (human colon carcinoma), BEL-7402 (human hepatocellular carcinoma), K562 (human leukemia), and Jurkat (human acute leukemia T) tumor cell lines.
# [3] = Cytotoxicity assay, SRB method, HCT-116; assay type: cell-based; settings: human, HCT-116 cells (human colon carcinoma); HCT-116, SRB method, adriamycin positive control; read-out: cytotoxicity IC50 against HCT-116 cell lines
# Procedure: as §1
# [4] = HeLa cells (human cervical carcinoma)
SMILES,IC50 [1] [µM],"IC50 [2, 4] [µM]",further results
"C=C(C)C1CC2=C(C(=O)OC)C=C(O2)C(O)C(C)(O)CC2C=C(C(=O)O2)C(OC(C)=O)C1 (stereo not shown) [Compound 14, Molestin E]",,,IC50 [2]: 5.26 µM; IC50 [3]: 8.37 µM
"C=C(C)[C@@H]1C/C=C2\C(=O)O[C@@H](C[C@]3(C)CC(=O)[C@H](CC(=O)C1)O3)[C@@H]2O [Compound 17, 5-epi-sinuleptolide]",,6.66,
"C=C(C)[C@@H]1C/C=C2\C(=O)O[C@@H](C[C@]3(C)CC(=O)[C@@H](CC(=O)C1)O3)[C@@H]2O [Compound 18, sinuleptolide]",,6.1,

# The next lines start with results.
IC50 [1] [µM],SMILES,"IC50 [2, 4] [µM]",further results
218,"CC(C)C1=CC2=C(C(=O)C[C@@]2(C)O)[C@H](C)CC1 [Compound 4, Molestin C]",,
344,"COC12CCC(C)(O)C1=CC(=O)CCC2C (stereo not shown) [Compound 5, Molestin D]",,
1.24,"C=C/C(C)=C\CCC(C)Cc1cc(C(=O)O)co1 (stereo not shown) [Compound 8, (5′Z)-5-(2′,6′-Dimethylocta-5′,7′-dienyl)-furan-3-carboxylic acid]",,
